{"source": "paper PMC9090415", "about": "“Discovery of small molecule inhibitors of Plasmodium falciparum apicoplast DNA polymerase” (Journal of Enzyme Inhibition and Medicinal Chemistry, 2022)", "target": "P. falciparum apicoplast DNA polymerase (Pf-apPOL) (Plasmodium falciparum, UniProt Q8ILY1)", "sequence (Q8ILY1 entry or part of it)": "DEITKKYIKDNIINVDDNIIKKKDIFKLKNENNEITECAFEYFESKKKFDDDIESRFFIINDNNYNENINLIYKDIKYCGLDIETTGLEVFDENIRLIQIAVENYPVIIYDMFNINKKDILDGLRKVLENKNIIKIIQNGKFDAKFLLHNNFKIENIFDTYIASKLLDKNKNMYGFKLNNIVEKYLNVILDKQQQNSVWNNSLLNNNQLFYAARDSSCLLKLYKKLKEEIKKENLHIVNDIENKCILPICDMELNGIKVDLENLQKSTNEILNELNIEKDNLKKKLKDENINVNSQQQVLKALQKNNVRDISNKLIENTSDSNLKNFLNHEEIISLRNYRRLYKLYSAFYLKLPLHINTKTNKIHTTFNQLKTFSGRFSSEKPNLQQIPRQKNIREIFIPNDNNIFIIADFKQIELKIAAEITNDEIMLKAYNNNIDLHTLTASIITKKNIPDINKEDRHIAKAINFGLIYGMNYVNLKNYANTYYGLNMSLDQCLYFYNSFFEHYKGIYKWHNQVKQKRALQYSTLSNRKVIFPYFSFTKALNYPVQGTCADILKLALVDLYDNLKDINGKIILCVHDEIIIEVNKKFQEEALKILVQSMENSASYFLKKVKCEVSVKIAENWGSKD", "test": "Fluorescence-based high-throughput DNA polymerase assay (molecular beacon), primary screen and dose-response;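 as to % inhibition Apol 40': compound concentration given in µM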", "assay_type": "biochemical", "conditions": "for DNA Pol: 90 min, 10 µM", "outline": "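Single-point screening used 10 µM compound with 20 nM polymerase, 20 nM hairpin substrate and 6 µM dNTPs for 90 min at 25 °C. Confirmatory titrations (2.5–80 µM) followed fluorescence at three times, and IC50 was derived from a fit including a cooperativity term n.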"}
{"smiles": "O=C(Nc1ccc2c(c1)Cc1cc(NC(=O)c3ccco3)ccc1-2)c1ccco1", "note": "[KU0038977]", "values": [{"measurement": "DNA Pol", "setting": "\"DNA Pol\" of the 186 hits list (screen value)", "value": 27}, {"measurement": "% inhibition Apo pol 10'", "setting": "DRC-1, concentration 2.5", "value": -0.5837, "unit": "%"}, {"measurement": "% inhibition Apo pol 10'", "setting": "DRC-1, concentration 5", "value": 5.785, "unit": "%"}, {"measurement": "% inhibition Apo pol 10'", "setting": "DRC-1, concentration 10", "value": 28.4085, "unit": "%"}, {"measurement": "% inhibition Apo pol 10'", "setting": "DRC-1, concentration 20", "value": 37.8617, "unit": "%"}, {"measurement": "% inhibition Apo pol 10'", "setting": "DRC-1, concentration 40", "value": 75.7214, "unit": "%"}, {"measurement": "% inhibition Apo pol 10'", "setting": "DRC-1, concentration 80", "value": 91.1334, "unit": "%"}, {"measurement": "% inhibition Apol 90'", "setting": "DRC-1, concentration 2.5", "value": -0.5506, "unit": "%"}, {"measurement": "% inhibition Apol 90'", "setting": "DRC-1, concentration 5", "value": 1.199, "unit": "%"}, {"measurement": "% inhibition Apol 90'", "setting": "DRC-1, concentration 10", "value": 17.4686, "unit": "%"}, {"measurement": "% inhibition Apol 90'", "setting": "DRC-1, concentration 20", "value": 25.9, "unit": "%"}, {"measurement": "% inhibition Apol 90'", "setting": "DRC-1, concentration 40", "value": 60.9972, "unit": "%"}, {"measurement": "% inhibition Apol 90'", "setting": "DRC-1, concentration 80", "value": 80.3159, "unit": "%"}, {"measurement": "% inhibition apPOL 180'", "setting": "DRC-1, concentration 2.5", "value": -0.3262, "unit": "%"}, {"measurement": "% inhibition apPOL 180'", "setting": "DRC-1, concentration 5", "value": 0.08289, "unit": "%"}, {"measurement": "% inhibition apPOL 180'", "setting": "DRC-1, concentration 10", "value": 10.649, "unit": "%"}, {"measurement": "% inhibition apPOL 180'", "setting": "DRC-1, concentration 20", "value": 16.9681, "unit": "%"}, {"measurement": "% inhibition apPOL 180'", "setting": "DRC-1, concentration 40", "value": 47.3942, "unit": "%"}, {"measurement": "% inhibition apPOL 180'", "setting": "DRC-1, concentration 80", "value": 72.1517, "unit": "%"}, {"measurement": "% inhibition Apo pol 5'", "setting": "DRC-2, concentration 2.5", "value": 21, "unit": "%"}, {"measurement": "% inhibition Apo pol 5'", "setting": "DRC-2, concentration 5", "value": 10, "unit": "%"}, {"measurement": "% inhibition Apo pol 5'", "setting": "DRC-2, concentration 10", "value": 35, "unit": "%"}, {"measurement": "% inhibition Apo pol 5'", "setting": "DRC-2, concentration 20", "value": 42, "unit": "%"}, {"measurement": "% inhibition Apo pol 5'", "setting": "DRC-2, concentration 40", "value": 53, "unit": "%"}, {"measurement": "% inhibition Apo pol 5'", "setting": "DRC-2, concentration 80", "value": 27, "unit": "%"}, {"measurement": "% inhibition Apol 40'", "setting": "DRC-2, concentration 2.5", "value": 30, "unit": "%"}, {"measurement": "% inhibition Apol 40'", "setting": "DRC-2, concentration 5", "value": 10, "unit": "%"}, {"measurement": "% inhibition Apol 40'", "setting": "DRC-2, concentration 10", "value": 40, "unit": "%"}, {"measurement": "% inhibition Apol 40'", "setting": "DRC-2, concentration 20", "value": 52, "unit": "%"}, {"measurement": "% inhibition Apol 40'", "setting": "DRC-2, concentration 40", "value": 69, "unit": "%"}, {"measurement": "% inhibition Apol 40'", "setting": "DRC-2, concentration 80", "value": 58, "unit": "%"}, {"measurement": "% inhibition ApPOL 90'", "setting": "DRC-2, concentration 2.5", "value": 29, "unit": "%"}, {"measurement": "% inhibition ApPOL 90'", "setting": "DRC-2, concentration 5", "value": 6.46, "unit": "%"}, {"measurement": "% inhibition ApPOL 90'", "setting": "DRC-2, concentration 10", "value": 35, "unit": "%"}, {"measurement": "% inhibition ApPOL 90'", "setting": "DRC-2, concentration 20", "value": 50, "unit": "%"}, {"measurement": "% inhibition ApPOL 90'", "setting": "DRC-2, concentration 40", "value": 71, "unit": "%"}, {"measurement": "% inhibition ApPOL 90'", "setting": "DRC-2, concentration 80", "value": 65, "unit": "%"}, {"measurement": "% inhibition apPOL 180'", "setting": "DRC-2, concentration 2.5", "value": 20, "unit": "%"}, {"measurement": "% inhibition apPOL 180'", "setting": "DRC-2, concentration 5", "value": -3.38, "unit": "%"}, {"measurement": "% inhibition apPOL 180'", "setting": "DRC-2, concentration 10", "value": 23, "unit": "%"}, {"measurement": "% inhibition apPOL 180'", "setting": "DRC-2, concentration 20", "value": 40, "unit": "%"}, {"measurement": "% inhibition apPOL 180'", "setting": "DRC-2, concentration 40", "value": 68, "unit": "%"}, {"measurement": "% inhibition apPOL 180'", "setting": "DRC-2, concentration 80", "value": 69, "unit": "%"}, {"measurement": "DNA Pol", "setting": "primary screen value, DNA Pol", "value": 27}]}
{"smiles": "O=C(NC(C(Cl)Cl)S(=O)(=O)c1ccccc1)c1ccccc1", "note": "(stereo not shown) [KU0045239]", "values": [{"measurement": "DNA Pol", "setting": "'DNA Pol' of the 186 hits list (primary screen value)", "value": 41}, {"measurement": "DNA Pol", "setting": "DNA Pol (primary screen value)", "value": 41}, {"measurement": "% inhibition Apo pol 10'", "setting": "DRC-1, concentration 2.5", "value": 21.4346, "unit": "%"}, {"measurement": "% inhibition Apo pol 10'", "setting": "DRC-1, concentration 5", "value": 25.395, "unit": "%"}, {"measurement": "% inhibition Apo pol 10'", "setting": "DRC-1, concentration 10", "value": 48.7805, "unit": "%"}, {"measurement": "% inhibition Apo pol 10'", "setting": "DRC-1, concentration 20", "value": 67.0388, "unit": "%"}, {"measurement": "% inhibition Apo pol 10'", "setting": "DRC-1, concentration 40", "value": 77.5747, "unit": "%"}, {"measurement": "% inhibition Apo pol 10'", "setting": "DRC-1, concentration 80", "value": 80.3513, "unit": "%"}, {"measurement": "% inhibition Apol 90'", "setting": "DRC-1, concentration 2.5", "value": 13.64, "unit": "%"}, {"measurement": "% inhibition Apol 90'", "setting": "DRC-1, concentration 5", "value": 16.8163, "unit": "%"}, {"measurement": "% inhibition Apol 90'", "setting": "DRC-1, concentration 10", "value": 39.9321, "unit": "%"}, {"measurement": "% inhibition Apol 90'", "setting": "DRC-1, concentration 20", "value": 58.936, "unit": "%"}, {"measurement": "% inhibition Apol 90'", "setting": "DRC-1, concentration 40", "value": 71.3995, "unit": "%"}, {"measurement": "% inhibition Apol 90'", "setting": "DRC-1, concentration 80", "value": 76.3715, "unit": "%"}, {"measurement": "% inhibition apPOL 180'", "setting": "DRC-1, concentration 2.5", "value": 5.305, "unit": "%"}, {"measurement": "% inhibition apPOL 180'", "setting": "DRC-1, concentration 5", "value": 7.81, "unit": "%"}, {"measurement": "% inhibition apPOL 180'", "setting": "DRC-1, concentration 10", "value": 29.3225, "unit": "%"}, {"measurement": "% inhibition apPOL 180'", "setting": "DRC-1, concentration 20", "value": 48.9159, "unit": "%"}, {"measurement": "% inhibition apPOL 180'", "setting": "DRC-1, concentration 40", "value": 64.7265, "unit": "%"}, {"measurement": "% inhibition apPOL 180'", "setting": "DRC-1, concentration 80", "value": 71.27, "unit": "%"}, {"measurement": "% inhibition Apo pol 5'", "setting": "DRC-2, concentration 2.5", "value": 4, "unit": "%"}, {"measurement": "% inhibition Apo pol 5'", "setting": "DRC-2, concentration 5", "value": 18, "unit": "%"}, {"measurement": "% inhibition Apo pol 5'", "setting": "DRC-2, concentration 10", "value": 26, "unit": "%"}, {"measurement": "% inhibition Apo pol 5'", "setting": "DRC-2, concentration 20", "value": 59, "unit": "%"}, {"measurement": "% inhibition Apo pol 5'", "setting": "DRC-2, concentration 40", "value": 65, "unit": "%"}, {"measurement": "% inhibition Apo pol 5'", "setting": "DRC-2, concentration 80", "value": 46, "unit": "%"}, {"measurement": "% inhibition Apol 40'", "setting": "DRC-2, concentration 2.5", "value": 11, "unit": "%"}, {"measurement": "% inhibition Apol 40'", "setting": "DRC-2, concentration 5", "value": 25, "unit": "%"}, {"measurement": "% inhibition Apol 40'", "setting": "DRC-2, concentration 10", "value": 36, "unit": "%"}, {"measurement": "% inhibition Apol 40'", "setting": "DRC-2, concentration 20", "value": 69, "unit": "%"}, {"measurement": "% inhibition Apol 40'", "setting": "DRC-2, concentration 40", "value": 76, "unit": "%"}, {"measurement": "% inhibition Apol 40'", "setting": "DRC-2, concentration 80", "value": 62, "unit": "%"}, {"measurement": "% inhibition ApPOL 90'", "setting": "DRC-2, concentration 2.5", "value": 11, "unit": "%"}, {"measurement": "% inhibition ApPOL 90'", "setting": "DRC-2, concentration 5", "value": 24, "unit": "%"}, {"measurement": "% inhibition ApPOL 90'", "setting": "DRC-2, concentration 10", "value": 35, "unit": "%"}, {"measurement": "% inhibition ApPOL 90'", "setting": "DRC-2, concentration 20", "value": 68, "unit": "%"}, {"measurement": "% inhibition ApPOL 90'", "setting": "DRC-2, concentration 40", "value": 76, "unit": "%"}, {"measurement": "% inhibition ApPOL 90'", "setting": "DRC-2, concentration 80", "value": 64, "unit": "%"}, {"measurement": "% inhibition apPOL 180'", "setting": "DRC-2, concentration 2.5", "value": 6.53, "unit": "%"}, {"measurement": "% inhibition apPOL 180'", "setting": "DRC-2, concentration 5", "value": 11, "unit": "%"}, {"measurement": "% inhibition apPOL 180'", "setting": "DRC-2, concentration 10", "value": 21, "unit": "%"}, {"measurement": "% inhibition apPOL 180'", "setting": "DRC-2, concentration 20", "value": 58, "unit": "%"}, {"measurement": "% inhibition apPOL 180'", "setting": "DRC-2, concentration 40", "value": 69, "unit": "%"}, {"measurement": "% inhibition apPOL 180'", "setting": "DRC-2, concentration 80", "value": 58, "unit": "%"}]}
